Laboratory results published in publication PMC8457121, “From Kinase Inhibitors to Multitarget Ligands as Powerful Drug Leads for Alzheimer's Disease using Protein‐Templated Synthesis” (Angewandte Chemie (International Ed. in English), 2021).

Key:
Human recombinant GSK3β = molecular target: T1, Human recombinant GSK3β (Homo sapiens, UniProt P49841); test: GSK3β inhibition enzymatic assay (Kinase-Glo); type: biochemical
T1 construct: purchased Millipore (Millipore Ibérica SAU)
Procedure: GSK3β inhibition enzymatic assay. Human recombinant GSK3β and the pre-phosphorylated polypeptide substrate were purchased from Millipore (Millipore Ibérica SAU). Kinase-Glo Luminescent Kinase Assay was obtained from Promega (Promega Biotech Ibérica, SL). ATP and all other reagents were from Sigma Aldrich (St. Louis, MO). Assay buffer contained 50 mM HEPES (pH 7.5), 1 mM EDTA, 1 mM EGTA, and 15 mM magnesium acetate.
Kinase-Glo assays were performed in assay buffer using black 96-well plates. In a typical assay, 10 μL (10 μM) of test compound (dissolved in DMSO) at 1 mM concentration and diluted in advance in assay buffer to the desired concentration) and 10 μL (20 ng) of enzyme were added to each well followed by 20 μL of assay buffer containing 25 μM substrate and 1 μM ATP. The final DMSO concentration […]
After 30 min incubation at 30 °C, the enzymatic reaction was stopped with 40 μL of Kinase-Glo reagent. Glow-type luminescence was recorded after 10 min using a FLUOstar Optima (BMG
Labtechnologies GmbH, Offenburg, Germany) multimode reader. The activity is proportional to the difference of the total and consumed ATP. The inhibitory activities were calculated based on maximal activities measured in the absence of inhibitor. The IC50 was defined as the concentration of each compound that reduces a 50 % the enzymatic activity with respect to that without inhibitors. […]

BACE1 = BACE1 (Homo sapiens, UniProt P56817); test: BACE1 enzymatic assay (FRET); type: biochemical
Chain of BACE1 (P56817 46-501): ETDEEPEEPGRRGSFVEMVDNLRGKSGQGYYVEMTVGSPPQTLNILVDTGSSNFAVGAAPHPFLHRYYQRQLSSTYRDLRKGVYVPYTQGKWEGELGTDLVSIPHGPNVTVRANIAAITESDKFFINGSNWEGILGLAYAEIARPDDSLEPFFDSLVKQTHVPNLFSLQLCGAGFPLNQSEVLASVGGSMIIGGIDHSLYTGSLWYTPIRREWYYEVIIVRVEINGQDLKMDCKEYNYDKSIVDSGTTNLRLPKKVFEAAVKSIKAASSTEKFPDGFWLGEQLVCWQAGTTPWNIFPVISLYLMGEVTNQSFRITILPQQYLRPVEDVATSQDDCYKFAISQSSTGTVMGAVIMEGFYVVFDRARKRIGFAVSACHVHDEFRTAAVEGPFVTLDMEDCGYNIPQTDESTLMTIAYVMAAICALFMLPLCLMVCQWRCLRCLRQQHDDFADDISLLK
Procedure: BACE1 enzymatic assay. BACE1 in vitro assays were carried out using FRET.
μM) carrying the Swedish mutation and containing a rhodamine as a fluorescence donor and a quencher acceptor at each end was used. The intact substrate is weakly fluorescent and becomes highly fluorescent upon enzymatic cleavage.
The assays were conducted in 50 mM sodium acetate buffer, pH 4.5, in a final

LRRK2 = molecular target: T2, LRRK2 (Homo sapiens, UniProt Q5S007); test: LRRK2 inhibition enzymatic assay (Adapta, ThermoFisher); type: biochemical
T2 construct: purchased ThermoFisher (assay run by the company)
T2 sequence (Q5S007 whole entry): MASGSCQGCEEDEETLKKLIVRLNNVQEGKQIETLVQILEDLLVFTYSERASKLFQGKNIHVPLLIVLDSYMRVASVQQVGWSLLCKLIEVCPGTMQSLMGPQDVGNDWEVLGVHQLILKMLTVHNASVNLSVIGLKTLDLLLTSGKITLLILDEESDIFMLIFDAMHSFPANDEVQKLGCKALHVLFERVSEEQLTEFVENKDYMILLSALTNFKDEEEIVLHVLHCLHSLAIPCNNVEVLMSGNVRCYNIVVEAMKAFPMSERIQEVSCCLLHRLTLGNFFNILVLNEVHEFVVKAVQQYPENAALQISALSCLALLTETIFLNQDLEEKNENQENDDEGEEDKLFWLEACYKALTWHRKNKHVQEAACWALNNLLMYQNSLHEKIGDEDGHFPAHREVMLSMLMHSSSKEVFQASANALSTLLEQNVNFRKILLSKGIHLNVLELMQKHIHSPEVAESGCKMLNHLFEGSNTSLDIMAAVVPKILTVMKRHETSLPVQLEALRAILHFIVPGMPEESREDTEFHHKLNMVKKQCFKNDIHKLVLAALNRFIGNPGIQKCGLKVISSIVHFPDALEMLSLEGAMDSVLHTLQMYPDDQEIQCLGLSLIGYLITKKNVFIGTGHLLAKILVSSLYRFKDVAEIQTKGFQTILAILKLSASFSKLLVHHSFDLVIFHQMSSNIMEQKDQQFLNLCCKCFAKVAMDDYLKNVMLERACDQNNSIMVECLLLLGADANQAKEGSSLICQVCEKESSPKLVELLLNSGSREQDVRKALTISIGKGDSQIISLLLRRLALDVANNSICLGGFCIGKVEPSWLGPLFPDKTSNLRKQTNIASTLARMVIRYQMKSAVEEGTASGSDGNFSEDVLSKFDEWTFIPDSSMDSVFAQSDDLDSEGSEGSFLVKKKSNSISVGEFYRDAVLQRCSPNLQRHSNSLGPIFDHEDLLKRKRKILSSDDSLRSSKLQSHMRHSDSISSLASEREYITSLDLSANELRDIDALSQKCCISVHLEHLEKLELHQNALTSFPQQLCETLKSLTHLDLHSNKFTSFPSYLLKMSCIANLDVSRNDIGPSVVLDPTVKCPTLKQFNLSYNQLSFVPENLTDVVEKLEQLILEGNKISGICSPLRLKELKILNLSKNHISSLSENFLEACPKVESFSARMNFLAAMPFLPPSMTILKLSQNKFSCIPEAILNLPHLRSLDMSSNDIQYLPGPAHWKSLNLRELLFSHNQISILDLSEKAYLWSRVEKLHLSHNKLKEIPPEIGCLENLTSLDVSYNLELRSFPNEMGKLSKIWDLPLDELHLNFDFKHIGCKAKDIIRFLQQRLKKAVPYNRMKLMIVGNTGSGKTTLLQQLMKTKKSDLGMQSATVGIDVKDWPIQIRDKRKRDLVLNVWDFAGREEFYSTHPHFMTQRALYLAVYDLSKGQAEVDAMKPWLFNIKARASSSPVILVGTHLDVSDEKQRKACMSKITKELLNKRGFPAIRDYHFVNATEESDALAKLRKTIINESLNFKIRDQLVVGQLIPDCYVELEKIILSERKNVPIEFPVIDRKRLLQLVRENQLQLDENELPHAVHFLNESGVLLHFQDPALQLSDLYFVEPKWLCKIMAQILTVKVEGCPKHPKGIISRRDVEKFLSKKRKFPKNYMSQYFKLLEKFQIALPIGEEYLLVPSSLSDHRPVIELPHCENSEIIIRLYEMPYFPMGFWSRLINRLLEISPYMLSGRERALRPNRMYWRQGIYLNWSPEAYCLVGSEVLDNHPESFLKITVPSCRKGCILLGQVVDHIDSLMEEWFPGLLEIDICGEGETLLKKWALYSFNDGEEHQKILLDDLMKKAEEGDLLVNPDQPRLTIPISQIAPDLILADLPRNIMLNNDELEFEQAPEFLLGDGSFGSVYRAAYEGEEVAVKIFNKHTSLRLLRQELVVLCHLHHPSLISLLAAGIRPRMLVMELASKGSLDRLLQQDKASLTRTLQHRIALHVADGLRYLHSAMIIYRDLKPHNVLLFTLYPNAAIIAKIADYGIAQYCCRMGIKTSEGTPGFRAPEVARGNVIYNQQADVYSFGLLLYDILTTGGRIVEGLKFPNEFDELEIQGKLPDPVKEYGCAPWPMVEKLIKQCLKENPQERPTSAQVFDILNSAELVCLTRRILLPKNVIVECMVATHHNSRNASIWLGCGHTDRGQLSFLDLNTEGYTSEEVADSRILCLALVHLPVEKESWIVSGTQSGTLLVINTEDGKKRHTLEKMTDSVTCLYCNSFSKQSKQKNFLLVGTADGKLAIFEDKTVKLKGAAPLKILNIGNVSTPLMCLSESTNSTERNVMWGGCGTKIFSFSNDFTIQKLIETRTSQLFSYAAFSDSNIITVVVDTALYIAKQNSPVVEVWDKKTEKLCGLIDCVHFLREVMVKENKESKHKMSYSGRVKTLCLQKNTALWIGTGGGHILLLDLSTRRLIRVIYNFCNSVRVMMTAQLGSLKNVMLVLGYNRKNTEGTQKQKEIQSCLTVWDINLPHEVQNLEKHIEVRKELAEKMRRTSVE

SK-APP cells [1] = test: Aβ40 and Aβ42 levels in SK-APP cells (sandwich ELISA); type: cell-based, human; settings: 10 μM, 48 h treatment
Procedure: page 35: enzyme concentration (1 U/mL). Inhibitor screening at 10 μM. The mixture was incubated for 60 min at 25 °C under dark conditions and then stopped with 2.5 M sodium acetate. Fluorescence was measured with a FLUOstar Optima (BMG Labtechnologies GmbH, Offenburg, Germany) microplate reader at 545 nm excitation and 585 nm emission. Evaluation of BACE Inhibitors Kinetics. To evaluate the mechanism of BACE1 inhibition of the compounds, substrate-dependent kinetic experiments were performed. BACE activity were measured at five different concentrations substrate (1000 -62,5 μM) in the absence or presence of the select inhibitor at two different concentrations. The results are presented as double reciprocal Lineweaver-Burk plots (1/V vs 1/[S]) Figure S1. Cell culture and treatments. SK-N-MC cells stably expressing the human isoform APP695 (SK-APP cell line […]1) were generated by transfection of SK-N-MC cells with a pCDNA3-APP expression vector, and kindly provided by Dr. MJ Bullido. These cells were cultured in DMEM (Thermo Fisher) medium supplemented with 10% FBS (Thermo Fisher), 1 mM glutamine (Sigma- Aldrich), and 100 unit/ml penicillin (Lonza) and […] streptomycin (Lonza). Cell cultures were maintained in a 5% CO2, humidified atmosphere at 37 °C. SH-SY5Y cells were obtained from the American Type Culture Collection and grown in DMEM media (Gibco), supplemented with 10% foetal bovine serum, and 1% penicillin/streptomycin (Invitrogen). The cells were grown at 37 °C in a humidified 5% CO2 atmosphere. For the treatments, all the compounds were dissolved in dimethyl sulfoxide (DMSO, from Sigma) at an initial stock concentration of 10 mM. […] working solutions were obtained from the dilution of the stock solutions in DMEM media (DMSO control solutions were prepared similarly to the compounds). Okadaic acid (OA, Sigma-Aldrich) was dissolved in DMSO at an initial stock concentration of 60 μM and a 250X working solution was obtained from the dilution of the stock solution in DMEM. All the compounds (250x solutions) were added directly into the wells at the indicated final concentrations for 1 hour before the treatment with OA at a final concentration of 30 nM. DMSO was added at the appropriate concentration to the 34 page 36: control-untreated cells. The cells were maintained in the presence of the OA and the different compounds for 24h. Measurement of cell viability. Cell viability assays were carried out using a 3- […] (Sigma-Aldrich) in 96-well cell culture plates. All cells were then incubated with a 0.5 mg/ml MTT solution (Sigma-Aldrich) at 37 °C for 4 h and then with cell lysis […] The absorbance values were determined at 590 nm. Cell viability was expressed as a percent of OD of control cells, the value of which was defined as 100%. Cell viability in SH-SY5Y were carried out following the same procedure but seeding the cells in 24 well multiplates. Absorbance was measured using a Varioskan Flash multiplate reader (Thermo Scientific) at test 550 nm and reference 664 nm wave-lengths. Compound concentration for SK-APP line was 10 μM and for the SH-SY5Y was 1 and 5 μM. Immunoassays. Levels of Aβ40 and Aβ42 were quantified by sandwich ELISAs (Wako, Osaka, Japan) from cellular lysates and conditioned media collected. CNS penetration: in vitro PAMPA-BBB test. Prediction of the brain penetration was evaluated using a parallel artificial membrane permeability assay (PAMPA).1 Nine quality control compounds (mentioned below) of know BBB permeability were included in each experiment to validate the analysis set.2 Commercial drugs […] dissolved in 250 μL of DMSO (Sigma-Aldrich). 25 μL of these compound stock solutions were taken and 225 μL of DMSO and 4750 μL of PBS pH 7.4 buffer were added to reach 5% of DMSO concentration in the experiment and a final […] Compounds to be determined their ability to pass the brain barrier (0.5-1 mg) were dissolved in 250 μL of DMSO and 4750 μL of PBS pH 7.4 was carefully added to afford a final […]

SH-SY5Y cells = test: Okadaic acid-induced cell death model, viability of SH-SY5Y cells; type: cell-based, human; settings: OA 30 nM, 24 h, compound 1 and 5 µM
Procedure: (§1) page 35: enzyme concentration (1 U/mL). Inhibitor screening at 10 μM. The mixture was incubated for 60 min at 25 °C under dark conditions and then stopped with 2.5 M sodium acetate. Fluorescence was measured with a FLUOstar Optima (BMG Labtechnologies GmbH, Offenburg, Germany) microplate reader at 545 nm excitation and 585 nm emission. Evaluation of BACE Inhibitors Kinetics. To evaluate the mechanism of BACE1 inhibition of the compounds, substrate-dependent kinetic experiments were performed. BACE activity were measured at five different concentrations substrate (1000 -62,5 μM) in the absence or presence of the select inhibitor at two different concentrations. The results are presented as double reciprocal Lineweaver-Burk plots (1/V vs 1/[S]) Figure S1. Cell culture and treatments. […] The absorbance values were determined at 590 nm. Cell viability was expressed as a percent of OD of control cells, the value of which was defined as 100%. […] Absorbance was measured using a Varioskan Flash multiplate reader (Thermo Scientific) at test 550 nm and reference 664 nm wave-lengths. […] Levels of Aβ40 and Aβ42 were quantified by sandwich ELISAs (Wako, Osaka, Japan) from cellular lysates and conditioned media collected. […] Compounds to be determined their ability to pass the brain barrier (0.5-1 mg) were dissolved in 250 μL of DMSO and 4750 μL of PBS pH 7.4 was carefully added to afford a final […]

PAMPA-BBB test = type: in vitro ADME; settings: for CNS prediction / Pe exp / Papp at 2.5 h: PAMPA-BBB; for Pe exp / Papp at 2.5 h: PBS pH 7.4/DMSO 95/5, 2.5 h, room temperature; for Papp at 2.5 h: read-out: Pe exp
Procedure: dissolved in 250 µL of DMSO (Sigma-Aldrich). 25 µL of these compound stock
solutions were taken and 225 µL of DMSO and 4750 µL of PBS pH 7.4 buffer
compound concentration in the range of 0.2 to 1.1 mM. Compounds to be
µL of DMSO and 4750 µL of PBS pH 7.4 was carefully added to afford a final
compound concentration in the range of 0.2 to 1.1 mM. Solutions were filtered
using filter PDVF membrane units (diameter 30 mm, pore size 0.45 μm, Symta).
10 µL of each solution were taken and diluted 10-fold with PBS/DMSO (95/5) for
HPLC-MS analysis. The acceptor 96-well plate (Multiscreen®, catalog no.
MAMCS9610, Millipore) was filled with 180 µL of PBS/DMSO (95/5). The donor
96-well plate (Multiscreen® IP Sterile Plate PDVF membrane, pore size is 0.45
M, catalog no. MAIPS4510, Millipore) was coated with 4 µL 20 mg·mL-1 of
for 5 min and then 180 µL of each compound solution was added. Then the donor
plate was put on the acceptor plate and kept for 2.5 h at room temperature. After
incubation, samples were collected from the acceptor plate and diluted 10-fold
with PBS/DMSO (95/5) for HPLC-MS analysis and compared to HPLC-MS of
initial solutions. Absorbance peak of each compound was determined by MS
detection and was used to calculate the concentration of compounds and
Every sample was analysed in two independent
runs. HPLC-MS was performed using a HPLC-MS equipment from Thermo
Fisher coupled to a Finnigan TM LXQ TM detector. Each compound was
analysed using a Sunfire column C18, 3.5 μm (50 mm x 4.6 mm) and acetonitrile
and Milli-Q water (with 0.1% formic acid) as mobile phase. The standard gradient

[2] = set-up: method as in earlier work; settings: PAMPA-BBB reported permeability ref 2; cited from earlier work
CK1δ = CK1δ (Homo sapiens, UniProt P48730); test: CK1δ inhibition enzymatic assay (Kinase-Glo); type: biochemical
Chain of CK1δ (P48730 whole entry): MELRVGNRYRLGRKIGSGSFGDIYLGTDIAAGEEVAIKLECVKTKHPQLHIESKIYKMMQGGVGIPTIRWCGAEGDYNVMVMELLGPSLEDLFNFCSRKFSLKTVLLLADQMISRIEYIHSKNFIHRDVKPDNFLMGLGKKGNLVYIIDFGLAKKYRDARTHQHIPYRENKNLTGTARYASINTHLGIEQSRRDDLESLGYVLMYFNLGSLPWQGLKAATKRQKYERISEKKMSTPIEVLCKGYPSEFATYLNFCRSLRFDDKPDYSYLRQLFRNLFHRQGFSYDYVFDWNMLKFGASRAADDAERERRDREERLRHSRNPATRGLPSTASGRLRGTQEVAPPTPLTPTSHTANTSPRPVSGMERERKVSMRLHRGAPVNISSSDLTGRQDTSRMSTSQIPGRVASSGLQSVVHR
Procedure: CK1δ inhibition enzymatic assay. The “Kinase-Glo” Kit from Promega was used to screen compounds for activity against CK1δ Kinase-Glo assays were performed in assay buffer using black 96-well plates. In a typical assay, 10 μl of test compound (dissolved in DMSO at 1 mM concentration and diluted in advance in assay buffer to the desired concentration) 10 μl (16 ng) of enzyme were added to each well followed by 20 µl of assay buffer containing 0,1 % casein as substrate […]
exceed 1%. After 60-min incubation at 30°C the enzymatic reaction was stopped […]
with 40 μl of Kinase-Glo reagent. Glow-type luminescence was recorded after 10 min using a FLUOstar Optima (BMG Labtechnologies GmbH, Offenburg, Germany) multimode reader. The activity is proportional to the difference of the total and consumed ATP. The inhibitory activities were calculated on the basis of maximal activities measured in the absence of inhibitor. The IC50 was defined as the concentration of each compound that reduces a 50% the enzymatic activity with respect to that without inhibitors. […]
Ibérica SAU). Kinase-Glo Luminescent Kinase Assay was obtained from Promega (Promega Biotech Ibérica, SL). ATP and all other reagents were from Sigma Aldrich (St. Louis, MO). Assay buffer contained 50 mM HEPES (pH 7.5), 1 mM EDTA, 1 mM EGTA, and 15 mM magnesium acetate. […]

SK-APP cells [3] = test: Cell viability (MTT) in SK-APP cells; type: cell-based, human; settings: 10 μM, 48 hours
Procedure: as §1

T1 sequence (P49841 whole entry): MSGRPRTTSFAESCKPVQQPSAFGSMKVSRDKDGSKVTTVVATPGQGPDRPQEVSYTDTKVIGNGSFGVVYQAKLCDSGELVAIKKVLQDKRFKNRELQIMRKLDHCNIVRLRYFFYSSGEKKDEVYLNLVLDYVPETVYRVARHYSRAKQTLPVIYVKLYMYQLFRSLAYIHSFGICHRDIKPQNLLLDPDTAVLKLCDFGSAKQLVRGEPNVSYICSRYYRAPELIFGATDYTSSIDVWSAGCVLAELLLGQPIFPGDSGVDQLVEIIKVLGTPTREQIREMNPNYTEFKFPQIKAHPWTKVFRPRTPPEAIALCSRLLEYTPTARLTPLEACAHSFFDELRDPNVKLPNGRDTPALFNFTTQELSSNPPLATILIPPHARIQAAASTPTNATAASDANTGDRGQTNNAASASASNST

Compound	IC50 (BACE1)	IC50 (LRRK2)	Papp at 2.5 h (PAMPA-BBB test)	IC50 (CK1δ)	CNS prediction (PAMPA-BBB test)	further results
CCn1sc(=O)n(Cc2ccccc2)c1=O [MBC-2138, reference compound]	> 20 µM	–	–	–	–	IC50 (Human recombinant GSK3β): 0.53 ± 0.03 µM
O=C1Nc2ccccc2/C1=N/c1ccc(OCc2cn(Cc3ccc(C(=O)Nc4nc5ccccc5s4)cc3)nn2)cc1 [compound 32]	–	–	–	–	–	inhibition at 10 µM (LRRK2; read-out: LRRK2 enzyme inhibition at 10 μM): 54%; inhibition at 10 µM (BACE1; read-out: BACE1 enzyme inhibition at 10 μM): < 20%
CCn1sc(=O)n(Cc2cn(Cc3ccc(C(=O)Nc4nc5ccccc5s4)cc3)nn2)c1=O [compound 14]	3.31 ± 0.27 µM	0.82 ± 0.14 µM	–	–	CNS- (CNS‐ (red) for compounds with Pe <1.88×10^−6 cm s^−1)	IC50 (Human recombinant GSK3β): 2.36 ± 0.27 µM; Aβ42 levels in cellular lysates (intracellular) (SK-APP cells [1]): unchanged; Aβ42 levels in extracellular fluid (SK-APP cells [1]): significant decrease; Neuroprotection against okadaic acid (OA) toxicity (SH-SY5Y cells): rescue from the toxic effect of OA; Pe exp (PAMPA-BBB test): 0 10-6 cm s-1
COc1ccc2nc(NC(=O)Cc3ccc(OCc4cn(CCc5ccc(C(=O)Nc6nc7ccccc7s6)cc5)nn4)cc3)sc2c1 [compound 29]	11 ± 1.36 µM	0.44 ± 0.1 µM	–	12.6 ± 0.7 µM	CNS- (CNS‐ (red) for compounds with Pe <1.88×10^−6 cm s^−1)	Pe exp (PAMPA-BBB test): 0 10-6 cm s-1

Continued, in another order:

IC50 (BACE1)	IC50 (LRRK2)	Papp at 2.5 h (PAMPA-BBB test)	IC50 (CK1δ)	Compound	CNS prediction (PAMPA-BBB test)	further results
–	–	5.18 ± 0.43 ×10⁻⁶ cm/s	–	CN(C)CCCN1c2ccccc2Sc2ccccc21 [Promazine, promazine, reference compound]	–	Pe Bibl. [2]: 8.8 10-6 cm s-1
2.51 ± 0.43 µM	7.09 ± 2.22 µM	–	–	O=C(Cc1ccc(Cn2cc(COc3ccc(C(=O)Nc4nc5ccccc5s4)cc3)nn2)cc1)Nc1nc2ccccc2s1 [compound 17]	–	inhibition at 10 µM (CK1δ; read-out: CK1δ enzyme inhibition at 10 μM): 26%; Cell viability of SK-APP cells (SK-APP cells [3]): significant decrease; Solubility in the conditions of the PAMPA experiment (PAMPA-BBB test; PBS pH 7.4 with 5% DMSO): insoluble
–	–	2.92 ± 0.37 ×10⁻⁶ cm/s	–	CN1C(C(=O)Nc2ccccn2)=C(O)c2ccccc2S1(=O)=O [Piroxicam, piroxicam, reference compound]	–	Pe Bibl. [2]: 2.5 10-6 cm s-1
7.24 ± 0.38 µM	13.5 ± 5.23 µM	3.07 ± 0.25 ×10⁻⁶ cm/s	6.47 ± 0.68 µM	O=C(Cc1ccc(Cn2cc(COc3ccc(/N=C4\C(=O)Nc5ccccc54)cc3)nn2)cc1)Nc1nc2ccccc2s1 [compound 16]	CNS+/CNS- (CNS+/CNS‐ (yellow) for compounds with Pe between both values)	Cell viability of SK-APP cells (SK-APP cells [3]): significant decrease
> 20 µM	–	–	0.33 ± 0.03 µM	O=C(Cc1ccccc1)Nc1nc2ccccc2s1 [MBC-858, reference compound]	–	–
